Values of other authors as cited in article PMC11881559 (Antimicrobial Agents and Chemotherapy, 2025).

Tests used:
[1] = test system: Delta variant of the novel coronavirus; details: K18-hACE2 mice infected with Delta variant, 300 mg/kg/day; cited from earlier work
[2] = test system: SARS-CoV-2 variants, including the wild-type, Alpha, Beta, Delta, and Omicron strains; details: cited from earlier work

In the case of `O=C(NC1CCCC1)C(=O)[C@H](C[C@@H]1CCNC1=O)NC(=O)[C@@H]1[C@H]2CCC[C@H]2CN1C(=O)[C@@H](NC(=O)C(F)(F)F)C1CCCCC1` [RAY1216, leritrelvir], the “lung viral titers and virus-induced pathology” value [1] is listed as “significantly decreased lung viral titers and reduced virus-induced pathology” and the “inhibition of SARS-CoV-2 variants in vitro” value [2] is listed as “clearly inhibited”.
